Test [1] relates to UDP-MurNAc-pentapeptide in MRSA USA300. Nature of the test: UDP-MurNAc-pentapeptide accumulation assay. The settings on record: 10 μg ml^−1, 60 min, UPLC-MS. The class given is cell-based, Staphylococcus aureus. As to the method:
The intracellular accumulation of the cell wall precursor UDP-MurNAc-pentapeptide after treatment of MRSA USA300 with malacidin was assessed as previously described (Schneider et al., […], Antimicrob Agents Ch 53:1610-18). In brief, single colonies of MRSA USA300 were grown in LB media with and without 15 mM CaCl2 to an OD600 nm of 0.6. […] of cells and medium were incubated with a final concentration of 130 μg ml^−1 chloramphenicol for 15 min at 37° C. Antibiotics to be assayed were added at 10 μg ml^−1 and incubated for 60 min at 37° C. Vancomycin, known to form a complex with lipid II, was used as a positive control. Cells were collected by centrifugation, and resuspended in 30 μl dH2O and incubated in boiling water for 15 min. The cell extract was then centrifuged at 14,000 g. Supernatant was analysed for UDP-linked cell wall precursors by a UPLC-MS system. Experiments were performed with biological replicates.

Another test has as its system E. faecium Com15. Nature of the test: MIC assay, E. faecium Com15. The format is cell-based, Enterococcus faecium. As to conditions: Enterococcus faecium Com15. As to the method: (§1) MIC assays were performed in duplicate in 96-well microtiter plates on the basis of the protocol recommended by the Clinical and Laboratory Standards Institute (Cockerill, 2012, Clinical and Laboratory Standards Institute). All presented data are the average of at least three independent assays. Stock solutions of malacidin or daptomycin (2 mg ml^−1 in H2O) were added to the first well in a row and serially diluted (twofold per transfer) across the microtiter plate. CaCl2 was supplemented to media at a final concentration of 15 mM and fetal bovine serum (ATCC) was added to media (1:10) to test the effect of serum. Overnight cultures of bacteria were diluted 5,000-fold, and 50 μl was used as an inoculum in each well. MIC values were determined by visual inspection after 18 h incubation (30° C., static growth). For the enhanced calcium titration experiments, standard MIC assays were performed with methicillin-resistant Staphylococcus aureus (MRSA) PFGE strain type USA300 in media supplemented with CaCl2 at: 25.0, 18.8, 14.1, 7.03, 3.52, 2.50, 1.76, 0.880, 0.440, 0.250 and 0 mM. To assess the effects of monovalent and divalent cations on malacidin activity, standard MIC assays were performed with MRSA USA300 in media supplemented with 15 mM CaCl2, MgCl2, MnCl2, ZnCl2, SrCl2, NaCl and KCl. To evaluate the effects of pulmonary surfactants on activity against a community-acquired pneumonia-causing pathogen, standard MIC assays were performed with Streptococcus pneumoniae TCH8431 in media supplemented with both 15 mM CaCl1 and Survanta (beractant) at a final concentration of 5, 1, 0.5, 0.25 or 0% (volume/volume (v/v) percent).

Test [2] deals with Acinetobacter baumannii ATCC 17978. Kind of test: MIC assay, A. baumannii. The class given is cell-based. As to the method:
as §1

The subject of test [3] is Klebsiella pneumonia ATCC 10031. Nature of the test: MIC assay, Klebsiella pneumonia. The class given is cell-based. As to the method: as §1
A further test has as its system E. faecium VRE. Nature of the test: MIC assay, E. faecium VRE. The settings on record: Enterococcus faecium VRE; Vancomycin (VRE); read-out: MIC. The format is cell-based, Enterococcus faecium. As to the method:
as §1

For another test, the system named is S. aureus NRS100. Kind of test: MIC assay, S. aureus NRS100. The class given is cell-based, Staphylococcus aureus. The settings on record: Staphylococcus aureus NRS100; β-lactams, Tetracycline; read-out: MIC. As to the method:
as §1

Another test deals with S. aureus NRS140. Nature of the test: MIC assay, S. aureus NRS140. As to conditions: Staphylococcus aureus NRS140; β-lactams, Erythromycin, Spectinomycin; read-out: MIC. The class given is cell-based, Staphylococcus aureus. As to the method:
as §1

Another test deals with S. aureus BAA-42. Nature of the test: MIC assay, S. aureus BAA-42. The format is cell-based, Staphylococcus aureus. The settings on record: BAA42; Staphylococcus aureus BAA-42; β-lactams; read-out: MIC. As to the method: as §1
For a further test, the system named is S. aureus NRS108. Nature of the test: MIC assay, S. aureus NRS108. The settings on record: Staphylococcus aureus NRS108; β-lactams, Gentamicin, Kanamycin; read-out: MIC. The format is cell-based, Staphylococcus aureus. As to the method:
as §1

The subject of another test is Escherichia coli BAS849. Kind of test: MIC assay, E. coli BAS849. The format is cell-based. As to the method:
as §1, with “To evaluate the effects of pulmonary surfactants on activity against a community-acquired pneumonia-causing pathogen, standard MIC assays were performed with Streptococcus pneumoniae TCH8431 in media supplemented with both 15 mM CaCl1 and Survanta (beractant) at a final concentration of 5, 1, 0.5, 0.25 or 0% (volume/volume (v/v) percent).” left out

In a further test the test system is S. aureus USA300. Kind of test: MIC assay, S. aureus USA300 (MRSA). The format is cell-based, Staphylococcus aureus. As to conditions: Staphylococcus aureus USA300, β-lactams (Methicillin, Oxacillin, Penicillin). As to the method:
as §1

In another test the test system is MRSA USA300. Kind of test: Membrane leakage assay (SYTOX green). The class given is cell-based, Staphylococcus aureus. The settings on record: 20 μg ml^−1. As to the method:
The effects of malacidin on membrane integrity was assessed using SYTOX green. In brief, single colonies of MRSA USA300 were grown in LB media with and without 15 mM CaCl2 to an OD600 nm of 0.35. Nine hundred microlitres of cells were mixed with 100 μL of 17 μM SYTOX green dye (Thermo Fisher). The resulting mixture was incubated for 5 min at 22° C., and then distributed to a microtiter plate at 50 μl per well. An initial reading of fluorescence pre-antibiotic addition was measured at excitation and emission wavelengths of 488 nm and 523 nm, respectively. Fifty microlitres of antibiotics was added to respective wells at a final concentration of 20 μg ml^−1. Measurements were immediately collected for 10 min. To assess the effects of malacidin on membrane depolarization, similar assays were set up using the membrane potential probe, DiBAC4 (bis-(1,3-dibutylbarbituric acid)trimethine oxonol). Single colonies of MRSA USA300 were grown in LB media with and without 15 mM CaCl2 to an OD600 nm of 0.35. Nine hundred microlitres of cells were mixed with 100 μl of 20 μg ml DiBAC4dye (Thermo Fisher). The resulting mixture was incubated for 5 min at 22° C., and then distributed to a microtiter plate at 50 μl per well. An initial reading of fluorescence pre-antibiotic addition was measured at excitation and emission wavelengths of 492 nm and 515 nm, respectively. Fifty microlitres of antibiotics was added to respective wells at a final concentration of 20 μg ml^−1. Measurements were immediately collected for 10 min. Representative examples from three technical replicates are shown.

Test [4] deals with Streptococcus pneumoniae TCH8431. The settings on record: from Silverman et al., 2005; cited from earlier work.
The test system of test [5] is Salmonella enterica IR 715. Kind of test: MIC assay, Salmonella enterica. The format is cell-based. As to the method:
as §1

For test [6], the system named is Bacillus subtilis 168 IAI. Kind of test: MIC assay, B. subtilis. The class given is cell-based. As to conditions: Bacillus subtilis 168 IAI; read-out: MIC. As to the method:
as §1

The subject of the next test is Escherichia coli DH5α. Kind of test: MIC assay, E. coli DH5α. The class given is cell-based. As to the method:
as §1

A further test concerns S. aureus COL. Nature of the test: MIC assay, S. aureus COL. The format is cell-based, Staphylococcus aureus. As to conditions: Staphylococcus aureus COL; β-lactams; read-out: MIC. As to the method: as §1
Test [7] has as its system Candida albicans ATCC 1884. Nature of the test: MIC assay, C. albicans. The class given is cell-based. As to conditions: Candida albicans ATCC 1884. As to the method: as §1
Test [8] concerns Cryptococcus neoformans ATCC 32045. Nature of the test: MIC assay, C. neoformans. The class given is cell-based. As to conditions: Cryptococcus neoformans ATCC 32045. As to the method:
as §1

Test [9] deals with Pseudomonas aeruginosa PAO1. Kind of test: MIC assay, P. aeruginosa. The format is cell-based. As to the method:
as §1

The subject of test [10] is Streptococcus pneumoniae TCH8431. Kind of test: MIC assay, S. pneumoniae. The class given is cell-based. The settings on record: Streptococcus pneumoniae TCH8431; read-out: MIC. As to the method:
as §1

The subject of the next test is S. aureus NRS146. Nature of the test: MIC assay, S. aureus NRS146. The class given is cell-based, Staphylococcus aureus. As to conditions: NRS 146 / VISA; Staphylococcus aureus NRS146; β-lactams, Vancomycin (VISA); read-out: MIC. As to the method: as §1

Converted amounts (≈) assume the structure as drawn. Like-named read-outs stand apart in the source and are kept apart here. Bounds are passed on as bounds.

These results are taken from patent publication US11472843B2, “Malacidins and methods of use” (The Rockefeller University, priority 2017, dated 2022).

What is called MIC is the lowest concentration that inhibits growth of the organism.

Consider `CN[C@H](CC(C)C)C(=O)N[C@H]1C(=O)N[C@@H](CC(N)=O)C(=O)N[C@H]2C(=O)N[C@H]3C(=O)N[C@H](C(=O)N[C@H](C(=O)O)c4cc(O)cc(O)c4-c4cc3ccc4O)[C@H](O)c3ccc(c(Cl)c3)Oc3cc2cc(c3O[C@@H]2O[C@H](CO)[C@@H](O)[C@H](O)[C@H]2O[C@H]2C[C@](C)(N)[C@H](O)[C@H](C)O2)Oc2ccc(cc2Cl)[C@H]1O` [vancomycin, reference compound], for which the “Accumulation of cell wall intermediate UDP-MurNAc-pentapeptide” value in test [1] is listed as “accumulation of the cell wall intermediate UDP-MurNAc-pentapeptide”.

`CCCCCCCCCC(=O)N[C@@H](Cc1c[nH]c2ccccc12)C(=O)N[C@H](CC(N)=O)C(=O)N[C@@H](CC(=O)O)C(=O)N[C@@H]1C(=O)NCC(=O)N[C@@H](CCCN)C(=O)N[C@@H](CC(=O)O)C(=O)N[C@H](C)C(=O)N[C@@H](CC(=O)O)C(=O)NCC(=O)N[C@H](CO)C(=O)N[C@@H]([C@H](C)CC(=O)O)C(=O)N[C@@H](CC(=O)c2ccccc2N)C(=O)O[C@@H]1C` [Daptomycin, daptomycin, reference compound]: the minimal inhibitory concentration (MIC) in the test on E. faecium Com15 (read-out: MIC) is 0.4 to 2 µg/mL (≈ 0.247 to 1.23 µM); in test [2] (ATCC17978, range of at least three independent experiments, read-out: MIC), more than 100 µg/mL; in [3] (Klebsiella pneumoniae, ATCC10031, read-out: MIC) it was more than 100 µg/mL; in the test with E. faecium VRE it was 0.4 to 2 µg/mL (≈ 0.247 to 1.23 µM); in the test with S. aureus NRS100 it was 0.2 to 0.8 µg/mL (≈ 0.123 to 0.494 µM); in the test on S. aureus NRS140 it was 0.2 to 0.8 µg/mL (≈ 0.123 to 0.494 µM). In addition, the MIC is 0.2 to 0.8 µg/mL (≈ 0.123 to 0.494 µM) with S. aureus BAA-42; 0.2 to 0.8 µg/mL (≈ 0.123 to 0.494 µM) in the test with S. aureus NRS108; 50 to 100 µg/mL (≈ 30.9 to 61.7 µM) in the test with Escherichia coli BAS849; 0.2 to 0.8 µg/mL (≈ 0.123 to 0.494 µM) in the test on S. aureus USA300 (read-out: MIC); more than 100 µg/mL in [5] (IR715, read-out: MIC); 0.2 to 0.4 µg/mL (≈ 0.123 to 0.247 µM) in [6]. Further, the MIC in the test with Escherichia coli DH5α (read-out: MIC) was more than 100 µg/mL; in the test on S. aureus COL it was 0.2 to 0.8 µg/mL (≈ 0.123 to 0.494 µM); in [7] (ATCC1884, read-out: MIC) it was more than 100 µg/mL; in test [8] (ATCC32045, read-out: MIC), more than 100 µg/mL; in [9] (read-out: MIC), more than 100 µg/mL; in [10], 0.1 to 0.2 µg/mL (≈ 0.0617 to 0.123 µM). Also, in the test with S. aureus NRS146, the MIC lay within 0.2 to 0.8 µg/mL (≈ 0.123 to 0.494 µM). Also, the “Membrane leakage (SYTOX green or DiBAC4)” value in the test with MRSA USA300 (absence of calcium supplementation) is given as “No membrane leakage”. Moreover, in the test with MRSA USA300 (with calcium (15 mM CaCl2)), the “Membrane leakage (SYTOX green fluorescence)” value is “rapid increase in fluorescence”. In addition, in test [4], the “Activity in the presence of pulmonary surfactants” value is on record as “loss of activity”.

On to malacidin B, for which the MIC with E. faecium Com15 is 0.8 to 2.0 µg/mL; in test [2] (range of at least three independent experiments), more than 100 µg/mL; in test [3], more than 100 µg/mL; in the test with S. aureus USA300, 0.4 to 0.8 µg/mL; in [5], more than 100 µg/mL; in the test on Escherichia coli DH5α, more than 100 µg/mL. Also, the minimal inhibitory concentration (MIC) in [7], in [8] and in test [9] was more than 100 µg/mL throughout.
